This is an account of results in patent US20260015339A1, “CALIX[4]ARENES WITH HIGH ANTICANCER ACTIVITY” (UNIVERSITE GRENOBLE ALPES, priority 2023, published 2026).

In brackets after ≈: the same amount, converted by molar mass.

A short description of experiment [1]: Cu^+ transport into liposomes with encapsulated BCS. Particulars: POPC/cholesterol 7:3 LUVs, calix[4]arene to lipid 1:1000, 50 μM copper gradient, F/F0 after 600 s. As to the method:
The ability of the examples of calix[4]arenes of the invention and the comparative examples to be delivered into a lipidic bilayer membrane of a liposome from a solution and their capacity to then act as a transporter of Cu^+ was evaluated using bathocuproine disulphonate (hereafter abbreviated “BCS”) encapsulated in large unilamellar vesicles (LUVs, also referred to as liposomes) composed of 1-palmitoyl-2-oleoyl-sn-glycero-3-phosphocholine and cholesterol in a 7:3 ratio.
BCS is a fluorescent water soluble phenantroline derivative that can be used as fluorescent dye for the sensing of Cu^+ through the formation of a non-fluorescent 2:1 complex.
Stock solution of lipids were prepared using deacidified CHCl3 and stored in a freezer. CHCl3 was deacidified by passing through activated basic alumina. The lipids used to prepare the liposomes were 2-oleoyl-1-palmitoyl-sn-glycero-3-phosphocholine (POPC), (purity ≥99%) and cholesterol (purity of 95%). 50 mM sodium phosphate buffer were prepared with Millipore water at pH 7 (±0.1) by mixing the solution of the mono- and the di-protonated phosphate salts. The solution of the dye (BCS) was prepared at 0.5 mM concentration in phosphate buffer.
The lipids solutions were mixed in different ratios in a 5 mL round bottom flask. The POPC/cholesterol molar ratio was 7:3 in all experiments. The total amount of lipids per batch varied depending on the amount of liposomes solution required for the experiment. After mixing the lipid solutions in a round bottom flask, the chloroform was evaporated under a gentle air flow and the resulting lipid film was dried at high vacuum for at least an hour. 500 μL of the BCS solution in phosphate buffer and a magnetic stir bar were added to the flask. The flask was then sonicated for 30 seconds and placed under magnetic agitation for at least an hour. The solution was frozen with liquid nitrogen and heated back to room temperature with warm water ten times to form large unilamellar vesicles (LUVs). The liposome solution was extruded 29 times, using an extrusion kit equipped with a membrane with 200 nm pores. Subsequently, the solution was eluted with the buffer solution used for the experiment through a size exclusion column (Sephadex G-25) to remove the external BCS and then diluted with phosphate buffer to obtain a concentration of 0.4 mM in lipids.
Solutions of the calix[4]arenes were prepared at a concentration of 0.24 mM in DMSO and 5 μL of the solution was added 2 minutes before each transport measurement.
Alternatively, calix[4]arenes were pre-incorporated by combining the calix[4]arene (dissolved in chloroform) with the lipids prior to the evaporation of the chloroform to obtain a lipid film. The concentrations and volumes were chosen to obtain a calix[4]arene to lipid of 1:1000.
Fluorescence measurements were performed with a Horiba FluoroMax 4 spectrometer using a 4-faced quartz cuvette (10 mm×10 mm). For the Cu^+ transport assay, the excitation was set at 278 nm and emission was recorded at 393 nm. These values correspond to the excitation and emission maxima of BCS encapsulated inside LUVs.
The Cu^+ solutions added to the liposomes were obtained by dissolving Cu(MeCN)4BF4 in MeCN at 15.25 mM concentration. The copper solution was then diluted by a factor 5 in a phosphate buffer during the first 30 seconds of the experiment to reach a copper concentration of 3.05 mM. 50 μL of the diluted copper solution was added to 3 mL of liposomes, resulting in a copper gradient of 50 μM. The fluorescence level was monitored for 600 seconds after the addition of the copper solution.
For each run the initial plateau and the initial vertical drop (due to the binding of the exterior dye with Cu^+ and the dilution, 1-4 seconds after the addition) were removed. Then the signal was normalised by dividing the fluorescence values (F) by the value at t=0 second (F0). […]

Experiment [2] deals with Candida albicans yeast cells. The experiment in a line: Minimal inhibitory concentration, yeast growth in 96 well plate. The class given is cell-based. Particulars: in presence of 100 μM CuSO4, read-out: minimal inhibitory concentrations values. The method, then: (§1) The efficiency of a compound of interest on a bacterial strain is evaluated by measuring its minimal inhibitory concentration (hereafter abbreviated “MIC”). MICs are measured by following the bacterial growth in a 96 wells plate exposed to a range of concentrations of the compound of interest.
(§2) 96 Well plates were filled with 20 μL of 1 mM CuSO4 solution, then 160 μL of growth media was added. Finally, 20 μL of DMSO solutions containing a range of concentrations of the tested calix[4]arene of the formula (2) was added. […] For each condition three wells were used. The top and bottom rows were used as control, the top row only contained Lysogeny broth and the bottom one contained the growth media, DMSO and CuSO4. The plates were placed in the incubator for 16 to 24 hours. The absorbance of each well was measured at 600 nm with a multiplate reader (Fluostar from Optima).
Additionally, the same protocol was repeated with Candida albican yeast cells. Instead of Lysogeny broth, Yeast Extract-Peptone-Dextrose (Bacteriological peptone, 20 g/L; Glucose, 20 g/L; Yeast extract, 10 g/L) was used as growing medium. […]

In experiment [3] the test system is Escherichia coli. The experiment in a line: Minimal inhibitory concentration, bacterial growth in 96 well plate. The class given is cell-based. Particulars: E. coli, with 100 μM CuSO4. As to the method:
as §1
(§3) A small amount of the frozen bacteria (stored at −80° C. in glycerol) was mixed in 25 mL of Lysogeny broth (i.e. a nutritionally rich medium used for the growth of bacteria which comprises 10 g of tryptone, 5 g of yeast extract, 10 g of NaCl, and 1 L of distilled water; with the pH adjusted to 7.0 with 1 N NaOH; and autoclaved for 25 min at 120° C.) in a falcon tube and then placed in an incubation chamber at 180 rpm and 37° C. After 16 to 24 hours, 25 mL of Lysogeny broth was added to the growth media and placed back in the incubation chamber for two hours. The absorption of the resulting solution was measured at 600 nm (hereafter abbreviated “OD600”) using Lysogeny broth as blank and then the solution was diluted to 0.1±0.01.
as §2
(§4) The ratio between the average absorption value of three wells (OD) with the same conditions minus the average of the 12 negative controls (OD(negative)) and the average of the 12 positive control (OD(positive)) minus the negative control yielded the growth value which was subtracted from one and multiplied by a hundred to give the inhibition percentage (Equation 1).
(§5) The MIC50 or MIC90 is defined by the lowest concentration for which the inhibition value is at/over 50 or 90%. For a given experimental conditions three rows are used in a plate. The whole process was also repeated three times to obtain triplicates. MIC values were the determined by the average values obtained.

Experiment [4] deals with methicillin resistant Staphylococcus aureus. The experiment is described as above. The format is cell-based. The conditions noted are these: MRSA, with 100 μM CuSO4. The method, then: as §1, §3, §2, §4, §5
Experiment [5] concerns Staphylococcus aureus. The description is as above. The format is cell-based. The conditions noted are these: SA, with 100 μM CuSO4. As to the method:
as §1, §3, §2, §4, §5

For experiment [6], the system named is A549 human lung cancer cells. The experiment in a line: MTS cytotoxicity assay, combination with CuCl2, A549. Particulars: Homo sapiens, A549, 72 h, read-out: percentage of cell viability. (Tetrazolium dyes change colour on reduction, which living cells bring about.)
Protocol: A549 human lung cancer cells were seeded in 96-well plates together with the calix[4]arene of the formula (2) and CuCl2. Cells were grown in RPMI-1640 supplemented with GlutaMAX™ (Gibco™) and fetal calf serum (FCS, 10%) treated with a broad range of concentrations of the calix[4]arene of the formula (2) or/and CuCl2 from Merck. After 72 hours of treatment, the cytotoxicity was measured by means of the IC50 value, using the kit “CellTiter 96R AQuous One Solution Cell Proliferation Assay (MTS)” from Promega™. Following 30 minutes of incubation with the MTS reagent, the endpoint measurements were done in triplicate at 485 nm, using a fluorescence plate reader.

On to `CCCOc1c2cccc1Cc1cccc(c1OCc1nccn1C)Cc1cccc(c1OCCC)Cc1cccc(c1OCc1nccn1C)C2` [(2)], for which the “Cu^+ transport” value in experiment [1] is reported as “Yes (means that a significant decrease of the fluorescence of encapsulated BCS was observed upon addition of Cu^+ to the liposomes (F/F0<0.65 after 600 s))”. The MIC in experiment [2] was determined as 0.8 µM. In experiment [3], the MIC50 (commonly an inhibitory concentration at the 50% level, which refers to growth in some studies and to a panel of isolates in others) amounted to 0.8 µM (≈ 0.558 µg/mL); the MIC90 (in general, an inhibitory concentration at the 90% level, which refers to growth in some studies and to a panel of isolates in others) was 1.6 µM (≈ 1.12 µg/mL). In experiment [4], the MIC50 was determined as 0.8 µM (≈ 0.558 µg/mL) and the MIC90 amounted to 0.8 µM (≈ 0.558 µg/mL). In experiment [5], this molecule had an MIC50 of 0.8 µM (≈ 0.558 µg/mL) and an MIC90 of 1.6 µM (≈ 1.12 µg/mL). In addition, in experiment [6], the viability (usually a read-out of living cells in per cent, often relative to untreated cells) at 0.1 µM amounted to 102%; the viability at 0.5 µM worked out at 96.4%; the viability at 1 µM came out at 79.9%; the viability at 1.5 µM came to 52.2%.
